Key:
Assay type in all cases: in vivo, rat
Male Sprague-Dawley rats [1] = experiment: Rapid Insulin Sensitivity Test (RIST); details: for RIST index: TAA rats (TAA 200 mg.kg-1 i.p. 24 h before), control RIST, treatments i.p. 1 h post TAA; for RIST index post atropine: TAA rats, second RIST after atropine 0.1 mg.kg-1 i.v. (HISS-independent component)
Protocol: Surgical Preparation. Male Sprague-Dawley rats weighing 260-300 g from the University of Manitoba colony were maintained in the animal house under controlled conditions (22±1° C., 12 h light/12 h dark cycle). They were fed a standard rat chow diet with free access to water. All rats underwent a fasting period of 8 h and a refeeding phase of 2 h immediately before the start of surgical preparation. As HISS is only released in the fed state, the fasting-refeeding protocol assured a high level of HISS release in response to insulin. The rats were anaesthetized with an intraperitoneal injection of sodium pentobarbital (65 mg kg-1; Somnotol, MTC Pharmaceuticals, Ont). Maintained anesthesia was achieved throughout the experiment by a continuous infusion of pentobarbital sodium (0.5 mg.ml-1 saline given at 50 μl.min-1) through a cannula in the jugular vein, supplemented with a 0.65 mg (0.01 ml) bolus injection when required. The rats were placed on a temperature-controlled surgical table (Harvard Apparatus, Kent, England) and rectal temperature was monitored and held at 37-37.5° C. Spontaneous respiration was allowed through a tracheal tube.
An arterial-venous shunt was established, as previous described (Lautt W W et al. Can J Physiol Pharmacol. 1998; 76(12): 1080-6.), for monitoring mean arterial blood pressure (MAP), blood glucose level and for drug delivery. Briefly, two catheters (polyethylene tubing PE60), one inserted into the right femoral artery and the other into the right femoral vein, were connected to the two openings of a three way vascular circuit consisting of a T tube connected with silicon tubing. The third opening of the circuit was connected to a pressure transducer for the recording of the shunt pressure which, when the silicon tubing toward the venous side of the circuit was closed by clamping, represented the systemic arterial blood pressure. Blood samples were taken from the arterial side of the shunt for the glucose measurement. Flowing blood within the shunt assures the real time measurement of the blood glucose concentration, which is essential for the euglycemic clamp test as mentioned below. An infusion line was inserted into the venous side of the loop for drug delivery. Another infusion line connected to the jugular vein was established for glucose infusion. Animals were heparinized (100 IU.kg-1) to prevent clotting in the vascular loop.
Rapid Insulin Sensitivity Test (RIST). The RIST was performed as previously described (Lautt W W et al. Can J Physiol Pharmacol. 1998; 76(12): 1080-6.). Briefly, following completion of surgery, animals were allowed a 30-min stabilization period. The baseline glucose levels were then determined by samples taken at 5-min intervals and continued until three successive stable determinations were made. The mean of these three data points is regarded as the baseline for the RIST. To perform the RIST, human insulin (50mU.kg-1 in 0.5 ml saline) was infused into the femoral vein at the rate of 0.1 ml.min-1 for 5-min. After 1-min of insulin infusion, the first test glucose sample was determined and a variable glucose infusion (10%) was initiated. Blood samples were taken every 2-min and the glucose infusion rate was adjusted accordingly to maintain euglycemia. The RIST index is the amount of glucose (mg.kg-1) infused, to maintain euglycemia, over the test period that terminated when no further glucose infusion was required (approximately 30 min). At the end of a RIST, the animal is at its pretest glycemic level.
(§1) Animal groups. Six groups of animals were established under the following treatments: (1): Normal control rats, treated with saline and corn oil injection at the dose of 2 and 1 ml.kg-1, respectively, n=12. (2): Normal rats, treated with Vitamin C, Vitamin E and SAMe, n=8. The dose for Vitamin C and Vitamin E were 100 and 200 mg.kg-1, respectively; for SAMe was 25 mg.kg-1. […]

Male Sprague-Dawley rats [2] = experiment: Liver histopathological examination; details: TAA rats; for Bridging Necrosis / Necrosis: score 0-3; for Inflammation: score 0-3 (normal-0, mild-1, moderate-2, severe-3), mean of 5 fields
Protocol: Six groups of animals were established under the following treatments: (1): Normal control rats, treated with saline and corn oil injection at the dose of 2 and 1 ml.kg-1, respectively, n=12. (2): Normal rats, treated with Vitamin C, Vitamin E and SAMe, n=8. The dose for Vitamin C and Vitamin E were 100 and 200 mg.kg-1, respectively; for SAMe was 25 mg.kg-1. (3): Thioacetaminde (TAA) rats, given with intraperitoneal injection of TAA at the dose of 200 mg.kg-1, n=9. (4): TAA rats treated with Vitamin C+Vitamin E, n=11. (5): TAA rats with SAMe treatment, n=7. (6): TAA rats treated with Vitamin C+Vitamin E+SAMe, n=8. All compounds were administered by intraperitoneal injection (i. p.). TAA was administered 24 h before the start of surgery, and all treatment with vitamins and SAMe were given 1 h post TAA administration.
The left liver lobe was excised and embedded in paraffin, sliced 7 μm in thickness, and stained with hematoxylin-eosin. The tissue slices were then analyzed with light microscopy. Histopathological analysis of the injured area was performed with a computerized video-imaging system (Image-Pro Plus. Media Cybernetics, Md., USA) by a pathologist (Y.F.) who was not aware of sample assignment to experimental group. The degree of injury, including inflammation, necrosis and bridging necrosis, was expressed as the mean of 5 different fields for each slide scaled as 0-3: normal-0, mild-1, moderate-2 and severe-3.

Male Sprague-Dawley rats [3] = experiment: Hepatic enzymes analysis (serum ALT and AST); details: TAA rats; effect on TAA-induced increases
Protocol: as §1, with “mg.kg-1. (3): Thioacetaminde (TAA) rats, given with intraperitoneal injection of TAA at the dose of 200 mg.kg-1, n=9. (4): TAA rats treated with Vitamin C+Vitamin E, n=11. (5): TAA rats with SAMe treatment, n=7. (6): TAA rats treated with Vitamin C+Vitamin E+SAMe, n=8. All compounds were administered by intraperitoneal injection (i. p.).” for “mg.kg-1.”
Protocol. […] Following the establishment of glucose baseline, the first RIST index was determined and this was regarded as the control RIST. […] The percentage contribution of HISS-dependent component to total insulin sensitivity was calculated as: % HISS=(RIST index in control−RIST index after atropine)/RIST index in control. […]
Hepatic enzymes analysis. Serum samples from rats in groups 1 to 6 were analyzed for alanine aminotransferase (ALT) and aspartate aminotransferase (AST) activities spectrophotometrically utilizing an Abbott analyzer and Diagnostic Chemicals Limited assay reagents (Charlottetown, P.E.I, Canada).

Row | Compound | inhibition at 0.1 mg/kg (Male Sprague-Dawley rats [1]; Rattus norvegicus, read-out: inhibition of insulin sensitivity) [%] | RIST index after atropine (Male Sprague-Dawley rats [1]; normal rats, atropine 0.1 mg.kg^−1) [mg/kg] | histological injury of liver (Male Sprague-Dawley rats [2]) | Bridging Necrosis (Male Sprague-Dawley rats [2]) | Necrosis (Male Sprague-Dawley rats [2]) | Inflammation (Male Sprague-Dawley rats [2]) | Serum ALT and AST activities (Male Sprague-Dawley rats [3]) | RIST index (Male Sprague-Dawley rats [1]) [mg/kg] | RIST index post atropine (Male Sprague-Dawley rats [1]) [mg/kg]
1 | CN1[C@@H]2CC[C@H]1C[C@@H](OC(=O)C(CO)c1ccccc1)C2 (stereo partly shown) [Atropine, atropine] | 50 ± 2.1 | 82.7 ± 3.2 |  |  |  |  |  |  | 
2 | C[S+](CC[C@H](N)C(=O)O)C[C@H]1O[C@@H](n2cnc3c(N)ncnc32)[C@H](O)[C@@H]1O (stereo partly shown) [SAMe, S-adenosylmethionine] |  |  | slight reduction in histological injury | 0.09 ± 0.09 | 1.79 ± 0.15 # | 0.93 ± 0.13 | did not prevent | 88.0 ± 4.1 | 72.1 ± 3.5
3 | CC(=N)S [TAA, thioacetamide] |  |  | massive hepatocytic necrosis | 1.17 ± 0.36 | 2.33 ± 0.17 | 1.50 ± 0.22 | significant increase | 75.5 ± 2.8 | 69.0 ± 2.1

Reference: US8716260B2, “Use of S-adenosylmethionine, vitamin E, and vitamin C for the treatment of oxidative liver injury” (University of Manitoba, priority 2005, dated 2014)
